Reference: US11344534B2, “Cholinergic agonism for the treatment of pancreatic cancer” (priority 2017, dated 2022)
“Also recorded” adds a separate entry of the source. Where two headings read alike, the source gives them in different places.

Columns and labels:
[1] = system: primary human PDA organoids; experiment: Primary human PDA organoids treated with pilocarpine; type: cell-based; details: dose-dependent, 100DM pilocarpine in FIG. 21B
From the text: To better understand the effect of growth inhibition by muscarinic agonists in human pancreatic epithelial cells, we generated primary human PDA organoids. Treatment with the broad muscarinic agonist, pilocarpine, reduced the number of viable organoids in a dose-dependent manner (FIGS. 21A-B). Treatment of human pancreatic cancer cells (Panc1) with pilocarpine reduced the size of the CD44+CD24+EpCAM+putative cancer stem cell population in a dose dependent manner (FIG. 21C) and inhibited tumor initiation in NOD/SCID mice (FIG. 21D). To better understand growth inhibition by muscarinic agonists, we analyzed changes in signaling molecules in animal models and PDA cell lines. […] Surprising, a number of signaling molecules were suppressed by both nonspecific and M1R-specific muscarinic agonists, including EGFR, B-RAF, ERK1/2, PI3K, and AKT kinase. These kinases all show reduced phosphorylation by muscarinic agonists, which was abrogated by treatment with muscarinic antagonists. Finally, we analyzed Panc-1 cells following pilocarpine treatment (1 mM, 72 hrs) using RNAseq, and noted that many of the genes suppressed by pilocarpine included EGFR and PI3K^17.

Panc1 cells = experiment: Subcutaneous implantation of 25,000 pilocarpine-pretreated Panc1 cells into NOD/SCID mice; type: in vivo, mouse; details: 25,000 Panc1 cells pretreated with pilocarpine for 72 hours vs untreated Panc1 cells
Method: To address the possible parasympathetic effects on sternness, human pancreatic cancer cells (Panc1 and BxPC3) were treated with pilocarpine.
To address the possible parasympathetic effects on stemness, human pancreatic cancer cells (Panc1 and BxPC3) were treated with pilocarpine.
(§1) LSL-Kras^+/LSL-G12D, LSL-Trp53^+/R172H, and Pdx1-Cre mice were bred by Dr. Kenneth P. Olive and co-workers. Chrm1KO mice (C57BL/6-Chrm1tm1 Stl/J, (M1RKO) mice^1 were purchased from the Jackson Laboratory. KC mice and KPC mice were crossed with M1RKO mice. In the vagotomy experiments, KC mice received pyloroplasty with or without vagotomy at 8 weeks, and some KC+VxPP mice were treated with bethanechol ([…] in drinking water) immediately after surgery and then sacrificed at 20 weeks. KPC mice in treatment studies were palpated weekly for tumors in the pancreas. Once a tumor was suspected, KPC mice were screened by VEVO 2100—Ultrasound Imaging System (FUJIFILM VisualSonics) for pancreatic cancer. KPC mice were treated with gemcitabine, given by i.p. injection 100 mg/kg biweekly, with or without bethanechol, when a tumor size of 3-5 mm was detected using ultrasound. Mice were sacrificed when the mice were moribund. NOD/SCID mice were implanted with Panc1 cells subcutaneously and sacrificed at 30 days after implantation. For liver metastatic experiments, WT type C57/B6 mice received a splenic injection of labeled Panc02 cells, followed by hemi-splenectomy. The mice were then divided into three groups. […] Mice were then sacrificed when moribund. At necropsy, hepatic metastases that could clearly be identified as tumor nodules on gross inspection were separated. All animal studies and procedures were approved by the IACUC committee at Columbia University. All mice were bred under specific pathogen free conditions. Comparisons were made with age- and sex-matched control animals.

Kras mutant Panc1 cells = experiment: Ca2+ flux in pancreatic cancer cells; type: cell-based, human; details: preliminary studies
human Panc1 cells = experiment: Western blot of EGFR/MAPK and PI3K/AKT signaling, Panc1; type: cell-based
Method: (§2) To analyze EGFR and the MAPK and PI3K-Akt pathway in human and murine pancreatic cancer cell lines, cells were grown in 12-well plate to around ˜70% confluent, changed the 0.5% FBS medium, added the drugs respectively and incubated them for further 72 hrs incubation in a typical CO2 incubator (˜20% O2). After removing the medium, cells were washed twice with PBS, and protein extraction was performed on ice using RIPA buffer with protease inhibitor (Complete) (Roche) cocktail and phosphatase inhibitor (phosSTOP) (Roche). Protein samples were subsequently separated in 10% Bis-Tris Gel NuPAGE® electrophoresis using MES SDS Running Buffer (Invitrogen, CA, USA). After transfer to nitrocellulose, membranes were blocked with 5% BSA, and samples were probed with the following primary antibodies: p-EGFR (Cell Signaling), EGFR (Cell Signaling), p-BRAF (Cell Signaling), BRAF (Cell Signaling), p-ERK1/2 (phosphorylated p44/42 MAPK) (Thr202/Tyr204) (Cell Signaling), ERK1/2 (p44/42 MAPK) (Thr202/Tyr204) (Cell Signaling), p-PI3K (Cell Signaling), PI3K (Cell Signaling), p-Akt (Cell Signaling), Akt (Cell Signaling), and β-actin (Cell Signaling) followed by horseradish peroxidase-coupled secondary antibody. Immunoreactive bands were visualized using 5-bromo-4-chloro-3-indolyl phosphate/nitro blue tetrazolium and bands were quantified with ImageJ.
(§3) To analyze EGFR, MAPK and PI3K-AKT pathways in human and murine pancreatic cancer cell lines, cells were grown in 12-well culture plates to ˜70% confluency. The medium was then changed to 0.5% FBS medium, the respective drugs were added, and they were incubated for an additional 72 hours in a CO2 incubator (˜5% CO2). After removing the medium, cells were washed twice with PBS, and protein extraction was performed on ice using RIPA buffer with protease inhibitor (Complete, Roche) cocktail and a phosphatase inhibitor (phosSTOP, Roche). Protein samples were subsequently separated by 10% Bis-Tris Gel NuPAGE® electrophoresis using MES SDS Running Buffer (Invitrogen, CA, USA). After transfer to nitrocellulose, membranes were blocked with 5% BSA, and samples were probed with the following primary antibodies: p-EGFR (Cell Signaling), EGFR (Cell Signaling), p-BRAF (Cell Signaling), BRAF (Cell Signaling), p-ERK1/2 (phosphorylated p44/42 MAPK) (Thr202/Tyr204) (Cell Signaling), ERK1/2 (p44/42 MAPK) (Thr202/Tyr204) (Cell Signaling), p-PI3K (Cell Signaling), PI3K (Cell Signaling), p-AKT (Cell Signaling), AKT (Cell Signaling), and β-actin (Cell Signaling) followed by horseradish peroxidase-coupled secondary antibody. Immunoreactive bands were visualized using 5-bromo-4-chloro-3-indolyl phosphate/nitro blue tetrazolium and bands were quantified with ImageJ.

murine K8282 cells = experiment: Western blot of EGFR/MAPK and PI3K/AKT signaling, K8282; type: cell-based, mouse
Method: as §2, §3

[2] = system: human PDAC cell lines (MiaPaca2, Panc1); experiment: MTT assay, human PDAC cell lines; type: cell-based
Method: Cell proliferation in each cell line was assessed with a 3-(4,5-dimethylthiazol-2yl)-2,5-diphenyltetrazolium bromide (MTT) assay kit (Sigma) in accordance with the manufacturer's instructions. 3×10^3 cells were grown in 96-well plate to around ˜70% confluent, changed the 0.5% FBS medium, added the drugs respectively and incubated them for further 72 hrs incubation in a typical CO2 incubator (˜20% O2). Treated cells were rinsed twice with PBS, incubated in 10 ll MTT solution for 4 hr at 37° C., and 100 uL DMSO was added to each well. The absorbance of each well was measured at 570 nm using Tilter-Tech 96-well multiscanner (Becton Dickinson, Heidelberg, Germany). The relative number of viable cells compared with the number of cells without drug treatment was expressed as percent cell viability using the following formula:
Cell proliferation in each cell line was assessed with a 3-(4,5-dimethylthiazol-2yl)-2,5-diphenyltetrazolium bromide (MTT) assay kit (Sigma) in accordance with the manufacturer's instructions. 3×10^3 cells were grown in 96-well plate to ˜70% confluency, the media was changed to 0.5% FBS medium, the respective drugs were added, and they were incubated for an additional 72 hours in a CO2 incubator (˜5% CO2). Treated cells were rinsed twice with PBS, incubated in 10 ul MTT (5 mg/ml PBS) solution for 4 hours at 37° C., and 100 uL DMSO was then added to each well. The absorbance of each well was measured at 570 nm using a Tilter-Tech 96-well multiscanner (Becton Dickinson, Heidelberg, Germany). The relative number of viable cells compared with the number of cells without drug treatment was expressed as percent cell viability using the following formula: cell viability (%)=A570 of treated cells/A570 of untreated cells.

KC mice = experiment: Vagotomized KC mice (KC+VxPP) treated with bethanechol in drinking water; type: in vivo, mouse; details: for pancreatic tumor (PDAC) incidence: bethanechol 400 μg/ml in drinking water, at 20 weeks; for pancreatic CD44 expression: bethanechol vs KC+VxPP controls, immunostaining
Method: Thus, KC mice that underwent vagotomy treated with or without Bethanechol, a broad muscarinic agonist, were compared. Bethanechol treatment (400 μg/ml) started immediately after receiving surgery and continued till 20 weeks.
K-Ras^+/LSL-G12D, p53^+/R172H, and Pdx-1-Cre mice were provided by Dr. Kenneth Olive (Columbia University). M1RKO mice were purchased from the Jackson Laboratory. KC mice and KPC mice were crossed with M1RKO mice. For several experiments, KC mice received pyloroplasty with or without vagotomy at 8 weeks and KC+VxPP mice were treated with or without bethanechol (400 μg/ml) after surgery immediately. They were sacrificed at 20 weeks. In addition, KPC mice were treated with gemcitabine biweekly and with or without bethanechol when the tumor size of 3-5 mm detected using ultrasound. They were sacrificed when the mice were moribund. For liver metastatic experiments, WT type C57/B6 mice received spleen injection and hemi-splenectomy. […] They were sacrificed when the mice were moribund.
Bethanechol treatment (400 μg/ml in drinking water) was started in KC mice at 8 weeks, immediately after the mice received surgery, and continued until 20 weeks of age.
as §1
5 μm paraffin embedded or PFA-fixed frozen sections were prepared for immunohistochemistry and immunofluorescence, respectively. For immunofluorescence, slides were washed with 1% Triton X-100 in PBS, rinsed and blocked for 30 min with 2% bovine serum albumin (BSA—Sigma-Aldrich). Primary antibodies and fluorophore-conjugated secondary antibodies were diluted in 2% BSA and incubated over night at 4° C. The following primary antibodies were used; Chrm1 (1:200 Santa Cruz), Ki67 (1:500 Abcam), p-EGFR (1:200 Abcam), and CD44 (1:200 BIO-RAD). For immunohistochemical staining, slides were deparaffinized in xylene and endogenous peroxidase was blocked by incubation with 3% hydrogen peroxide in methanol for visualization using the peroxidase reaction.

[3] = cited from earlier work
[4] = vagotomized KC mice, bethanechol treatment

Structure (SMILES): CC[C@@H]1C(=O)OC[C@@H]1Cc1cncn1C [pilocarpine, (3S,4R)-3-ethyl-4-[(3-methylimidazol-4-yl)methyl]oxolan-2-one]
- number of viable organoids [1]: reduced
- tumor incidence / tumor initiation in NOD/SCID mice (Panc1 cells): significant reduction; also recorded: inhibited
- tumor volume / size in NOD/SCID mice (Panc1 cells): significant reduction
- tumor incidence / tumor initiation in NOD/SCID mice (Panc1 cells; listed as Pilocarpine): fewer
- tumor volume / size in NOD/SCID mice (Panc1 cells; listed as Pilocarpine): smaller
- Ca2+ flux (Kras mutant Panc1 cells): unable to stimulate
- phosphorylation of EGFR, BRAF, ERK1/2, PI3K and AKT kinases (western blot) (human Panc1 cells; 72 hours): significantly less phosphorylated
- ratios of p-EGFR/EGFR, p-BRAF/BRAF, p-ERK/ERK, p-PI3K/PI3K and p-AKT/AKT (densitometry) (human Panc1 cells; single agent alone): significantly decreased
- phosphorylation of EGFR, BRAF, ERK1/2, PI3K and AKT kinases (western blot) (murine K8282 cells; 72 hours): significantly less phosphorylated
- ratios of p-EGFR/EGFR, p-BRAF/BRAF, p-ERK/ERK, p-PI3K/PI3K and p-AKT/AKT (densitometry) (murine K8282 cells; single agent alone): significantly decreased
- proliferation (MTT assay) ([2]; 72 hours, 0.5% FBS medium): suppressed
- increase in proliferation due to muscarinic antagonists ([2]; agonist added to antagonist): blocked; also recorded: inhibited to some extent

Structure (SMILES): CC(C[N+](C)(C)C)OC(N)=O (stereo not drawn) [bethanechol, 2-[(aminocarbonyl)oxy]-N,N,N-trimethyl-1-propanaminium]
- M1R expression (KC mice; KC mice following vagotomy, bethanechol in drinking water): reduced
- PanIN area (KC mice; KC+VxPP mice, bethanechol 400 μg/ml in drinking water from 8 to 20 weeks, vs untreated KC+VxPP): significant reduction; also recorded: reduced
- pancreatic tumor (PDAC) incidence (KC mice; KC+VxPP mice, vs untreated KC+VxPP): reduced; also recorded: inhibits
- pancreatic tumor (PDAC) incidence (KC mice; KC+VxPP mice, vs untreated KC+VxPP, listed as Bethanechol): significant reduction; also recorded: significant decrease
- pancreatic CD44 expression (KC mice; KC+VxPP mice): significant decrease; also recorded: reduced
- pancreatic CD44 expression (KC mice; KC+VxPP mice, listed as Bethanechol): reduced
- area of inflammation (KC mice; vagotomized KC mice, bethanechol 400 μg/ml, vs KC+VxPP control group): significant reduction
- accelerated tumorigenesis / PanIN progression after vagotomy (KC phenotype) (KC mice; [4]): ameliorated; also recorded: suppresses; also recorded: restored the normal KC phenotype; also recorded: reduces
- expression of p-EGFR, p-PI3K and p-ERK1/2 (immunohistochemical staining) (KC mice; [4]): significantly suppressed
- systemic and splenic levels of TNFα, CD11b+ and F4/80+ pancreatic myeloid cells (KC mice; [4]): suppressed
- tumor-associated macrophages (TAM) increased by vagal denervation (KC mice; [4]): abolished
- accelerated tumorigenesis / PanIN progression after vagotomy (KC phenotype) (KC mice; vagotomized KC mice, bethanechol treatment, listed as Bethanechol): abrogate; also recorded: suppressed
- toxicity in treatment of xerostomia ([3]; cancer patients, 25 mg twice daily for several months): without any severe (Grade 3) toxicity
- side effects in treatment of xerostomia ([3]; cancer patients, up to 50 mg three times daily and 25 mg 3 times a day): did not identify any clinically significant side effects
- duration of action ([3]; human, in vivo): 6 h
- interactions with gemcitabine or nab-paclitaxel ([3]; human, in vivo): no reported interactions
- toxicity in treatment of xerostomia ([3]; oncology, doses up to 50 mg three times daily): without grade 3 toxicity or need for discontinuation
- toxicity of single doses ([3]; single doses up to 200 mg): only mild cholinergic toxicity
